Data on 29 molecules can be found in US20240150293A1, “SPIROCYCLOHEXANE DERIVATIVES, PHARMACEUTICAL COMPOSITIONS CONTAINING THEM AND THEIR USES AS ANTI-APOPTOTIC INHIBITORS” (LES LABORATOIRES SERVIER, priority 2021, published 2024).

Like-named read-outs stand apart in the source and are kept apart here.

The target in experiment [1] is Cy5-labelled Mcl1 (amino acids 171-321) C286S protein (UniProtKB Q07820) (Homo sapiens (Human), UniProt Q07820, C286S). Put plainly: Inhibition of Mcl-1 by the fluorescence quenching assay (Example A, Method B). In kind it is binding. An outline of the steps: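 Cy5-labelled Mcl1 171-321 C286S (1 nM) quenched by TQ5WS-labelled PUMA peptide (10, 20 or 400 nM); displacement raises fluorescence (Ex 620/Em 680 nm). Buffer 10 mM HEPES, 150 mM NaCl, 0.05% Tween 20, pH 7.4, 5% DMSO; 2 h at room temperature, 11-point curves, IC50 converted to Ki (cKi/eKi).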
Cy5-labelled Mcl1 (amino acids 171-321) C286S protein, sequence (Q07820 171-321 C286S): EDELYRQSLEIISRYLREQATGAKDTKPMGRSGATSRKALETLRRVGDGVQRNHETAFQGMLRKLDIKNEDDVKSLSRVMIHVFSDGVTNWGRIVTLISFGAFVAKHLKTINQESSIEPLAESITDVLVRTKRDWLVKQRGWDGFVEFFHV

Experiment [2] has as its system H929 multiple myeloma tumor line. Put plainly: In vitro cytotoxicity, MTT assay (Example B, Method A). It counts as cell-based. The conditions noted are these: H929 cells, 48 hours exposure, read-out: C50. The procedure:
The cytotoxicity studies were carried out on the H929 multiple myeloma tumor line.
The cells are distributed onto microplates and exposed to the test compounds for 48 hours. The cell viability is then quantified by a colorimetric assay, the Microculture Tetrazolium Assay (Carmichael et al, Cancer Res. 1987, 47, 939-942).
The results are expressed in C50 which means concentration corresponding to […] of effect/inhibition.

For `C[C@@H](COc1ccnc2c1CCCC2C(F)F)C[C@H]1Cc2ccccc2[C@]12CC[C@@](Nc1cccc(Cl)c1)(C(=O)O)CC2` (single isomer, unassigned) [Example 683], the inhibition constant (Ki) in experiment [1] was 106 nM. In experiment [2], the IC50 is 9850 nM.
For `C[C@@H](COc1ccnc2c1C(F)CCC2)C[C@H]1Cc2ccccc2[C@]12CC[C@@](Nc1cccc(Cl)c1)(C(=O)O)CC2` (single isomer, unassigned) [Example 685] the same measures were 5.8 nM and 1460 nM.
As for `C[C@@H](COc1ccnc2c1C(F)CCC2)C[C@H]1Cc2ccccc2[C@]12CC[C@@](Nc1cccc(Cl)c1)(C(=O)O)CC2` (single isomer, unassigned) [Example 686], the Ki in experiment [1] stood at 1.85 nM. For the same molecule, in experiment [2], the IC50 turned out to be 442 nM.
For `C[C@@H](COc1ccnc2c1[C@H](C)CCC2)CC1Cc2c(Cl)cccc2[C@]12CC[C@@](Nc1cccc(Cl)c1)(C(=O)O)CC2` (single isomer, unassigned) [Example 740] the same measures were 0.827 nM and 45.9 nM.
For `C[C@@H](COc1ccnc2c1[C@H](C)CCC2)CC1Cc2c(Cl)cccc2[C@]12CC[C@@](Nc1cccc(Cl)c1)(C(=O)O)CC2` (single isomer, unassigned) [Example 741] the same measures were 1.58 nM and 132 nM.
Regarding `C[C@@H](COc1ccnc2c1[C@H](C)CCC2)CC1Cc2c(F)cccc2[C@]12CC[C@@](Nc1cccc(Cl)c1)(C(=O)O)CC2` (single isomer, unassigned) [Example 742], the Ki in experiment [1] is 1.23 nM. The IC50 in experiment [2] (Homo sapiens, NCI-H929, 48 h) is 59.6 nM.
`C[C@@H](COc1ccnc2c1[C@H](C)CCC2)CC1Cc2c(F)cccc2[C@]12CC[C@@](Nc1cccc(Cl)c1)(C(=O)O)CC2` (single isomer, unassigned) [Example 743]: the Ki in experiment [1] stood at 0.463 nM. Moreover, the IC50 in experiment [2] stood at 110 nM.
For `C[C@@H](COc1ccnc2c1[C@H](C)CCC2)CC1Cc2c(Cl)c(F)ccc2[C@]12CC[C@@](Nc1cccc(Cl)c1)(C(=O)O)CC2` (single isomer, unassigned) [Example 746] the same measures were 0.356 nM and 25.4 nM.
For `C[C@@H](COc1ccnc2c1[C@H](C)CCC2)CC1Cc2c(Cl)c(F)ccc2[C@]12CC[C@@](Nc1cccc(Cl)c1)(C(=O)O)CC2` (single isomer, unassigned) [Example 747] the same measures were 0.788 nM and 118 nM.
As to `C[C@@H](COc1ccnc2c1[C@H](C)CCC2)CC1Cc2c(F)c(Cl)ccc2[C@]12CC[C@@](Nc1cccc(Cl)c1)(C(=O)O)CC2` (single isomer, unassigned) [Example 748], the Ki in experiment [1] was determined as 1.5 nM. The IC50 in experiment [2] (Homo sapiens, NCI-H929, 48 h) was 138 nM.
Turning to `C[C@@H](COc1ccnc2c1[C@H](C)CCC2)CC1Cc2c(F)c(Cl)ccc2[C@]12CC[C@@](Nc1cccc(Cl)c1)(C(=O)O)CC2` (single isomer, unassigned) [Example 749], in experiment [1], the Ki was 0.321 nM. Besides, the IC50 in experiment [2] amounted to 72.4 nM.
On to `Cc1cccc2c1CC(C[C@@H](C)COc1ccnc3c1[C@H](C)CCC3)[C@]21CC[C@](Nc2cccc(Cl)c2)(C(=O)O)CC1` (single isomer, unassigned) [Example 754], for which the Ki in experiment [1] was 1.23 nM. In addition, the IC50 in experiment [2] (Homo sapiens, NCI-H929, 48 h) worked out at 96.6 nM.
In the case of `Cc1cccc2c1CC(C[C@@H](C)COc1ccnc3c1[C@H](C)CCC3)[C@]21CC[C@](Nc2cccc(Cl)c2)(C(=O)O)CC1` (single isomer, unassigned) [Example 755], the Ki in experiment [1] was determined as 0.94 nM. Also, the IC50 in experiment [2] worked out at 58.4 nM.
For `Cc1cc(C(C)O)cc2c1C=C(C[C@@H](C)COc1ccnc3c1[C@H](C)CCC3)[C@]21CC[C@](Nc2cccc(Cl)c2)(C(=O)O)CC1` (single isomer, unassigned) [Example 759] the same measures were 0.303 nM and 185 nM.
For `Cc1cc(C(C)O)cc2c1C=C(C[C@@H](C)COc1ccnc3c1[C@H](C)CCC3)[C@]21CC[C@](Nc2cccc(Cl)c2)(C(=O)O)CC1` (single isomer, unassigned) [Example 760] the same measures were 0.198 nM and 81.7 nM.
Turning to `CC(O)c1ccc2c(c1)[C@]1(CC[C@@](Nc3cccc(Cl)c3)(C(=O)O)CC1)[C@@H](C[C@@H](C)COc1ccnc3c1[C@H](C)CC[C@H]3O)C2` (single isomer, unassigned) [Example 861], in experiment [1], the Ki was 0.0909 nM. Besides, the IC50 in experiment [2] (Homo sapiens, NCI-H929, 48 h) was 56.3 nM.
With `CC(O)c1ccc2c(c1)[C@]1(CC[C@@](Nc3cccc(Cl)c3)(C(=O)O)CC1)[C@@H](C[C@@H](C)COc1ccnc3c1[C@H](C)CC[C@H]3O)C2` (single isomer, unassigned) [Example 862], the inhibitory constant (Ki) in experiment [1] was found to be 0.113 nM. For the same molecule, in experiment [2], the IC50 was 73.8 nM.
For `CC(O)c1ccc2c(c1)[C@]1(CC[C@@](Nc3cccc(Cl)c3)(C(=O)O)CC1)[C@@H](C[C@@H](C)COc1ccnc3c1[C@H](C)CC[C@H]3F)C2` (single isomer, unassigned) [Example 863] the same measures were 0.382 nM and 76.7 nM.
Take `CC(O)c1ccc2c(c1)[C@]1(CC[C@@](Nc3cccc(Cl)c3)(C(=O)O)CC1)[C@@H](C[C@@H](C)COc1ccnc3c1[C@H](C)CC[C@H]3F)C2` (single isomer, unassigned) [Example 864]: the Ki in experiment [1] was found to be 0.374 nM. Also, the IC50 in experiment [2] is 183 nM.
With `O=C(O)[C@]1(Nc2cccc(Cl)c2)CC[C@@]2(CC1)c1ccccc1CN2CCCOc1ccnc2ccsc12` [Example 36, (1s,4s)-4-(3-chloroanilino)-2′-{3-[(thieno[3,2-b]pyridin-7-yl)oxy]propyl}-2′,3′-dihydrospiro[cyclohexane-1,1′-isoindole]-4-carboxylic acid], in experiment [1] (Ki determined from IC50), the Ki is 749 nM. Further, the IC50 in experiment [2] (Homo sapiens, NCI-H929, 48 h) worked out at 18500 nM.
For `O=C(O)[C@]1(Nc2cccc(Cl)c2)CC[C@]2(CC1)C(Br)=Cc1ccccc12` [Example 75, (1s,4s)-2′-bromo-4-(3-chloroanilino)spiro[cyclohexane-1,1′-indene]-4-carboxylic acid], the Ki in experiment [1] (Ki determined from IC50) amounted to 119 nM. Also, the IC50 in experiment [2] (Homo sapiens, NCI-H929, 48 h) was 30000 nM.
In the case of `COCC(COc1ccnc2c1CCC2)CC1Cc2ccccc2[C@]12CC[C@@](Nc1cccc(Cl)c1)(C(=O)O)CC2` (stereo partly shown) [Example 494, (1r,4r)-4-(3-chloroanilino)-2′-(2-{[(6,7-dihydro-5H-cyclopenta[b]pyridin-4-yl)oxy]methyl}-3-methoxypropyl)-2′,3′-dihydrospiro[cyclohexane-1,1′-indene]-4-carboxylic acid], in experiment [1], the Ki is 3.62 nM. In experiment [2] (Homo sapiens, NCI-H929, 48 h), the IC50 stood at 808 nM.
For the molecule `O=C(O)[C@]1(Nc2cccc(Cl)c2)CC[C@@]2(CC1)c1ccccc1CC2CC(COc1ccccc1)COc1ccnc2ccsc12` (stereo partly shown) [Example 501, (1r,4r)-4-(3-chloroanilino)-2′-{2-(phenoxymethyl)-3-[(thieno[3,2-b]pyridin-7-yl)oxy]propyl}-2′,3′-dihydrospiro[cyclohexane-1,1′-indene]-4-carboxylic acid], the Ki in experiment [1] stood at 4.8 nM. The IC50 in experiment [2] (Homo sapiens, NCI-H929, 48 h) turned out to be 431 nM.
For `O=C(O)[C@]1(Nc2cccc(Cl)c2)CC[C@@]2(CC1)c1ccccc1CC2CC(COc1ccnc2ccsc12)C(F)F` (stereo partly shown) [Example 511, (1r,4r)-4-(3-chloroanilino)-2′-(3,3-difluoro-2-{[(thieno[3,2-b]pyridin-7-yl)oxy]methyl}propyl)-2′,3′-dihydrospiro[cyclohexane-1,1′-indene]-4-carboxylic acid] the same measures were 19.9 nM and 2720 nM.
For `CC[C@@H](COc1ccncc1)C[C@H]1Cc2ccccc2[C@]12CC[C@@](Nc1cccc(Cl)c1)(C(=O)O)CC2` [Example 544, (1r,2′S,4S)-4-(3-chloroanilino)-2′-[(2R)-2-{[(pyridin-4-yl)oxy]methyl}butyl]-2′,3′-dihydrospiro[cyclohexane-1,1′-indene]-4-carboxylic acid] the same measures were 22.4 nM and 8320 nM.
For `O=C(O)[C@]1(Nc2cccc(Cl)c2)CC[C@@]2(CC1)c1ccccc1C[C@@H]2C[C@H](COc1ccnc2ccsc12)c1ccccc1` [Example 547, (1r,2′S,4S)-4-(3-chloroanilino)-2′-{(2S)-2-phenyl-3-[(thieno[3,2-b]pyridin-7-yl)oxy]propyl}-2′,3′-dihydrospiro[cyclohexane-1,1′-indene]-4-carboxylic acid], the Ki in experiment [1] came out at 6.95 nM. For the same molecule, the IC50 in experiment [2] (Homo sapiens, NCI-H929, 48 h) turned out to be 376 nM.
For `O=C(O)[C@]1(Nc2cccc(Cl)c2)CC[C@@]2(CC1)c1ccccc1C[C@@H]2C[C@H](COc1ccncc1)c1ccccc1` [Example 555, (1r,2′S,4S)-4-(3-chloroanilino)-2′-{(2S)-2-phenyl-3-[(pyridin-4-yl)oxy]propyl}-2′,3′-dihydrospiro[cyclohexane-1,1′-indene]-4-carboxylic acid] the same measures were 14.6 nM and 2860 nM.
For `CCCC#C[C@H](COc1ccnc2ccsc12)CC1=Cc2ccccc2[C@]12CC[C@@](Nc1cccc(Cl)c1)(C(=O)O)CC2` [Example 564, (1r,4R)-4-(3-chloroanilino)-2′-[(2R)-2-{[(thieno[3,2-b]pyridin-7-yl)oxy]methyl}hept-3-yn-1-yl]spiro[cyclohexane-1,1′-indene]-4-carboxylic acid] the same measures were 29.9 nM and 16100 nM.
For `CCCC#C[C@@H](COc1ccnc2ccsc12)CC1=Cc2ccccc2[C@]12CC[C@@](Nc1cccc(Cl)c1)(C(=O)O)CC2` [Example 565, (1r,4S)-4-(3-chloroanilino)-2′-[(2S)-2-{[(thieno[3,2-b]pyridin-7-yl)oxy]methyl}hept-3-yn-1-yl]spiro[cyclohexane-1,1′-indene]-4-carboxylic acid], the inhibitory constant (Ki) in experiment [1] was found to be 10.8 nM. Besides, the IC50 in experiment [2] (Homo sapiens, NCI-H929, 48 h) was 2390 nM.

A word on the Ki: it is a dissociation constant, usually derived from enzyme kinetics or from competition with a known ligand.
